The values that follow come from patent US6399629B1, “Efflux pump inhibitors” (priority 1998, dated 2002).

Counter-ions that a name gives are not always drawn.

The test system of this experiment is Pseudomonas aeruginosa PAM1001. In words: microbe, parasite or virus in culture. In kind it is cell-based. The note with it: for inhibition at 2.5 µg/mL / inhibition at 5 µg/mL / inhibition at 10 µg/mL / inhibition at 20 µg/mL / inhibition at 40 µg/mL: Pseudomonas aeruginosa, PAM1001, read-out: Inhibition (%) of growth of P. aeruginosa PAM1001; for Inhibition (%) of growth of P. aeruginosa PAM1001: Levofloxacin 0.25 μg/mL. The essentials: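 P. aeruginosa PAM1001 grown in Mueller Hinton broth from 1×10^6 CFU/mL inoculum with levofloxacin 0.25 microg/mL plus varying EPI concentrations; growth followed by A650 over 18 h at 37° C. Result given as % growth inhibition versus levofloxacin-only culture without EPI.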

Setting [1] is: Concentration of Compound 2.5 μg/mL.
Setting [2] is: Concentration of Compound 5 μg/mL.
Setting [3] is: Concentration of Compound 10 μg/mL.
Where [4] appears, read: Concentration of Compound 20 μg/mL.
The mark [5] stands for this setting: Concentration of Compound 40 μg/mL.

For `NCCS(=O)(=O)N[C@H]1CN[C@H](C(=O)Nc2ccc(Oc3ccccc3)cc2)C1` [Compound D322, trans-4-(2-Aminoethylsulfonylamino)-L-Proline 4-Phenoxyphenylamide Dihydrochloride], the inhibition at 2.5 µg/mL worked out at 19%, the inhibition at 5 µg/mL amounted to 19%, the inhibition at 10 µg/mL came to 17% and the inhibition at 20 µg/mL stood at 99%. Moreover, the inhibition at 40 µg/mL came to 100%.

For the compound `N[C@H]1CCN[C@H](C(=O)Nc2ccc(Oc3ccccc3)cc2)C1` [Compound D329, trans-4-Amino-L-Pipecolinoyl-(4-Phenoxyphenyl)-amide Dihydrochloride], the inhibition at 2.5 µg/mL is 20%, the inhibition at 5 µg/mL is 20%, the inhibition at 10 µg/mL came to 17% and the inhibition at 20 µg/mL was found to be 16%. Also, the inhibition at 40 µg/mL worked out at 97%.

As to `NCC(=O)N[C@H]1CCN[C@H](C(=O)Nc2ccc(Oc3ccccc3)cc2)C1` [Compound D330, trans-4-Glycylamino-L-Pipecolinoyl 4-Phenoxy-phenylamide Dihydrochloride], the inhibition at 2.5 µg/mL was 19%, the inhibition at 5 µg/mL was 18%, the inhibition at 10 µg/mL came out at 12% and the inhibition at 20 µg/mL came out at 100%. Besides, the inhibition at 40 µg/mL was found to be 100%.

Take `NC[C@H]1CN[C@H](C(=O)Nc2ccc(Oc3ccccc3)cc2)C1` [Compound D331, trans-4-Aminomethyl-L-Proline 4-Phenoxyphenyl-amide Dihydrochloride]: the inhibition at 2.5 µg/mL is 17%, the inhibition at 5 µg/mL amounted to 9%, the inhibition at 10 µg/mL is -10% and the inhibition at 20 µg/mL is 100%. The inhibition at 40 µg/mL is 100%.

Take `NCC(=O)N[C@H]1CN[C@H](C(=O)N2CCN(c3cccc(Cl)c3)CC2)C1` [Compound D401, 1-(trans-4-Glycylamino-L-Prolyl)-4-(3-Chlorophenyl)-piperazine Dihydrochloride]: the inhibition at 2.5 µg/mL turned out to be 21%, the inhibition at 5 µg/mL turned out to be 19%, the inhibition at 10 µg/mL is 15% and the inhibition at 20 µg/mL was determined as 4%. Further, the inhibition at 40 µg/mL was 96%.

For the compound `Cc1c(Cl)cccc1N1CCN(C(=O)[C@H]2C[C@H](NC(=O)[C@@H](O)CN)CN2)CC1` [Compound D402, 1-[trans-4-((2S)-3-Amino-2-Hydroxypropionylamino)-D-Prolyl]-4-(3-Chloro-2-Methylphenyl)piperazine Dihydrochloride], the inhibition at 2.5 µg/mL came out at 19%, the inhibition at 5 µg/mL worked out at 71%, the inhibition at 10 µg/mL amounted to 99% and the inhibition at 20 µg/mL was found to be 100%. Moreover, the inhibition at 40 µg/mL amounted to 101%.

As for `NCC(=O)N[C@H]1CN[C@H](C(=O)N2CCN(c3ccccc3Cl)CC2)C1` [Compound D405, 1-(trans-4-Glycylamino-L-Prolyl)-4-(2-Chlorophenyl)-piperazine Dihydrochloride], the inhibition at 2.5 µg/mL was determined as 20%, the inhibition at 5 µg/mL came out at 19%, the inhibition at 10 µg/mL came to 16% and the inhibition at 20 µg/mL was -11%. Further, the inhibition at 40 µg/mL was 58%.

Take `Cc1c(Cl)cccc1N1CCN(C(=O)[C@@H]2C[C@@H](CN)CN2)CC1` [Compound D407, 1-(trans-4-Aminomethyl-L-Prolyl)-4-(3-Chloro-2-methylphenyl)piperazine Dihydrochloride]: the inhibition at 2.5 µg/mL is 100%, the inhibition at 5 µg/mL is 100%, the inhibition at 10 µg/mL amounted to 99% and the inhibition at 20 µg/mL amounted to 99%. Also, the inhibition at 40 µg/mL turned out to be 98%.

For the compound `NCC(=O)N[C@@H]1CN[C@@H](C(=O)N2CCN(Cc3ccccc3)C[C@H]2CCc2ccccc2)C1` [Compound D409, (2R)-4-Benzyl-1-(trans-4-Glycylamino-D-Prolyl)-2-Phenethylpiperazine Trihydrochloride], the inhibition at 2.5 µg/mL is 22%, the inhibition at 5 µg/mL was 16%, the inhibition at 10 µg/mL worked out at 99% and the inhibition at 20 µg/mL turned out to be 100%. Moreover, the inhibition at 40 µg/mL was found to be 100%.

Consider `NCC(=O)N[C@H]1CN[C@H](C(=O)N2CCC(Oc3ccc(OCc4ccccc4)cc3)CC2)C1` [Compound D413, 1-(trans-4-Glycylamino-L-Prolyl)4-(4-Benzyloxyphenoxy)piperidine Dihydrochloride], for which the inhibition at 2.5 µg/mL was found to be 13%, the inhibition at 5 µg/mL was found to be 8%, the inhibition at 10 µg/mL stood at 97% and the inhibition at 20 µg/mL was 100%. In addition, the inhibition at 40 µg/mL amounted to 100%.

For the compound `NCC(=O)N[C@H]1CN[C@H](C(=O)N2CCC(Oc3cc(Cl)cc(Cl)c3)CC2)C1` [Compound D414, 1-(trans-4-Glycylamino-L-Prolyl)-4-(3,5-dichlorophenoxy)piperidine Dihydrochloride], the inhibition at 2.5 µg/mL came to 19%, the inhibition at 5 µg/mL came out at 98%, the inhibition at 10 µg/mL was 100% and the inhibition at 20 µg/mL was 100%. Further, the inhibition at 40 µg/mL was determined as 100%.

On to `Cl.Cl.NCC(=O)N[C@@H]1CN[C@@H](C(=O)N2CCC(Oc3cc(Cl)cc(Cl)c3)CC2)C1` [Compound D415], for which the “Inhibition (%) of growth of P. aeruginosa PAM1001” value under setting [1] was 13%; the “Inhibition (%) of growth of P. aeruginosa PAM1001” value under setting [2] is listed as 99%; the “Inhibition (%) of growth of P. aeruginosa PAM1001” value under setting [3] came out at 100%; the “Inhibition (%) of growth of P. aeruginosa PAM1001” value under setting [4] is 100%; the “Inhibition (%) of growth of P. aeruginosa PAM1001” value under setting [5] is listed as 100%.

As to `Cl.Cl.NCC(=O)N[C@H]1CN[C@H](COc2ccc(-c3ccccc3)cc2)C1` [Compound D501, (2S,4R)-4-Glycylamino-2-(4-Biphenyloxy)-methylpyrrolidine Dihydrochloride], the “Inhibition (%) of growth of P. aeruginosa PAM1001” value was found to be 1% under setting [1]; 98% under setting [2]; 100% under setting [3]; 100% under setting [4]; 98% under setting [5].

As for `NCC(=O)N[C@H]1CN[C@H](COc2cccc(-c3ccccc3)c2)C1` [Compound D502, (2S,4R)-4-Glycylamino-2-(3-Biphenyloxy)methyl-pyrrolidine Dihydrochloride], the inhibition at 2.5 µg/mL was found to be 13%, the inhibition at 5 µg/mL is 88%, the inhibition at 10 µg/mL came out at 99% and the inhibition at 20 µg/mL is 100%. Besides, the inhibition at 40 µg/mL was 100%.

As for `NCC(=O)N[C@@H]1CN[C@@H](COc2ccc(-c3ccccc3)cc2)C1` [Compound D503, (2R,4S)-4-Glycylamino-2-(4-Biphenyloxy)methyl-pyrrolidine Dihydrochloride], the inhibition at 2.5 µg/mL was 22%, the inhibition at 5 µg/mL was determined as 15%, the inhibition at 10 µg/mL is 100% and the inhibition at 20 µg/mL was 100%. For the same compound, the inhibition at 40 µg/mL was 100%.

Turning to `NCC(=O)N[C@@H]1CN[C@@H](COc2cccc(-c3ccccc3)c2)C1` [Compound D504, (2R,4S)-4-Glycylamino-2-(3-Biphenyloxy)methyl-pyrrolidine Dihydrochloride], the inhibition at 2.5 µg/mL is 22%, the inhibition at 5 µg/mL is 3%, the inhibition at 10 µg/mL worked out at 74% and the inhibition at 20 µg/mL is 100%. The inhibition at 40 µg/mL was 99%.

For the compound `NCCNC(=O)[C@@H]1C[C@@H](Oc2cccc(-c3ccccc3)c2)CN1` [Compound D601, trans-4-(3-Biphenyloxy)-L-Proline 2-Aminoethylamide Dihydrochloride], the inhibition at 2.5 µg/mL worked out at 20%, the inhibition at 5 µg/mL was found to be 18%, the inhibition at 10 µg/mL was determined as 16% and the inhibition at 20 µg/mL was found to be 86%. For the same compound, the inhibition at 40 µg/mL amounted to 100%.

In the case of `NCC(O)[C@@H]1C[C@@H](Oc2cccc(-c3ccccc3)c2)CN1` (stereo partly drawn) [Compound D602, (2S,4R)-2-(2-Amino-1-hydroxyethyl)-4-(3-biphenyloxy)pyrrolidine Dihydrochloride], the inhibition at 2.5 µg/mL came to 98%, the inhibition at 5 µg/mL was 99%, the inhibition at 10 µg/mL came out at 100% and the inhibition at 20 µg/mL was 100%. Moreover, the inhibition at 40 µg/mL was 100%.

`Cl.Cl.NCC(=O)NC1CNC(C(=O)Nc2cccc(NC(=O)CCc3ccccc3)c2)C1` [Compound D701, 1-(N-trans-4-Glycylamino-L-Prolylamino)-3-(4-Phenylpropanoylamino)benzene Dihydrochloride]: the “Inhibition (%) of growth of P. aeruginosa PAM1001” value by setting is: under setting [1], 17%; under setting [2], 10%; under setting [3], 96%; under setting [4], 100%; under setting [5], 100%.

Consider `Cl.Cl.Cl.NCC(=O)NC1CNC(C(=O)Nc2cccc(NC(=O)CCc3ccccc3)n2)C1` [Compound D702, 2-(trans-4-Glycylamino-L-Prolylamino)-6-(4-Phenylpropanoylamino)Pyridine Trihydrochloride], for which the “Inhibition (%) of growth of P. aeruginosa PAM1001” value reads like this: under setting [1], 19%; under setting [2], 15%; under setting [3], 82%; under setting [4], 100%; under setting [5], 100%.

As to `Cl.Cl.NCC(=O)N[C@H]1CN[C@H](C=Cc2ccc(-c3ccccc3)cc2)C1` [Compound D801, (2S,4R)-4-Glycylamino-2-((E and Z)-4-Phenyistyryl)-pyrrolidine Dihydrochloride], the “Inhibition (%) of growth of P. aeruginosa PAM1001” value is recorded as 8% under setting [1]; 63% under setting [2]; 99% under setting [3]; 99% under setting [4]; 99% under setting [5].

Usually inhibition stands for the change of the read-out against control, counted positive when it falls.
